Tests used:
TRKA = biological target: T1, TRKA (Homo sapiens, UniProt P04629); test: Z'-LYTE kinase activity detection, TRKA; assay type: biochemical
T1 construct: purchased American Life Technologies PV3144

BaF3-CD74-NTRK1 = biological target: T2, BaF3-CD74-NTRK1 (Homo sapiens, UniProt P04629); test: Cell proliferation inhibition, Ba/F3-TRKs stable strain (CCK-8); assay type: cell-based, mouse; details: 72 hours, read-out: cell viability IC50 CD74-NTRK1
T2 construct: fused on or other part: P04233 (HLA class II histocompatibility antigen gamma chain)
T2 sequence (P04629 510-796 limits assumed): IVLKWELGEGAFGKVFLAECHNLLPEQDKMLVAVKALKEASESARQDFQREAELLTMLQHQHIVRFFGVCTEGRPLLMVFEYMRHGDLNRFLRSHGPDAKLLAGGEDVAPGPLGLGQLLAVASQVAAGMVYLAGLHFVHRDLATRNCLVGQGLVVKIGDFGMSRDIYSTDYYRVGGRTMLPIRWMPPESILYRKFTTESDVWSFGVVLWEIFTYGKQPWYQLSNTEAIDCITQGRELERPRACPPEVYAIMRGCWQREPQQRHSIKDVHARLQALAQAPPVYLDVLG
Text: (§1) The BaF3 cells (mouse pre-B cells) used in this experiment were purchased from the Japanese Cell Bank. All of the monoclonal stable strains, BaF3-CD74-NTRK1, BaF3-ETV6-NTRK2 and BaF3-ETV6-NTRK3 were constructed by our laboratory, and were identified by experiments such as positive control, protein expression and gene sequencing.
(§2) The brief steps of stable strain construction were as follows: constructed pCDNA3.1(+) plasmid vector carrying genes such as CD74-NTRK1, ETV6-NTRK2, ETV6-NTRK3; the plasmid was electroporated into Ba/F3 cells using Amaxa® Cell Line Nucleofector® Kit V; 48 hours after electroporation, geneticin (G418) with a final concentration of 1000 μg/mL was added to screen for two weeks, and the interleukin 3 (IL3) was removed to continue screening to obtain polyclonal stable strains; and then single clones were selected by limiting dilution method; the stable strains were then identified by the positive drugs, Western Blot (WB), and gene sequencing; the correct monoclonal through identification can be used to study the cell proliferation inhibitory activity of the inhibitors.
(§3) Cell proliferation inhibitory activity study: The cells in logarithmic growth phase were seeded into 96-well plates at 8000-12000 cells/well, and the inhibitors at different concentrations of (0-10 μM) were added the next day, and the culture was continued for 72 hours; then 10 μL of Cell Counting Kit-8 Cell Counting Reagent (CCK-8 Reagent) was added to each well, and continued to incubate for 1-3 hours; then its absorbance at 450 nm and 650 nm were measured with a super microplate reader. The median inhibitory concentration (IC50) was calculated using medical graphing software (GraphPad Prism 8.0.0).

BaF3-ETV6-NTRK3 = biological target: T3, BaF3-ETV6-NTRK3 (Homo sapiens, UniProt Q16288); test: as above; assay type: cell-based, mouse; details: 72 hours, read-out: cell viability IC50 ETV6-NTRK3
T3 construct: fused on or other part: P41212 (Transcription factor ETV6)
T3 sequence (Q16288 whole entry, the tested form may be a part): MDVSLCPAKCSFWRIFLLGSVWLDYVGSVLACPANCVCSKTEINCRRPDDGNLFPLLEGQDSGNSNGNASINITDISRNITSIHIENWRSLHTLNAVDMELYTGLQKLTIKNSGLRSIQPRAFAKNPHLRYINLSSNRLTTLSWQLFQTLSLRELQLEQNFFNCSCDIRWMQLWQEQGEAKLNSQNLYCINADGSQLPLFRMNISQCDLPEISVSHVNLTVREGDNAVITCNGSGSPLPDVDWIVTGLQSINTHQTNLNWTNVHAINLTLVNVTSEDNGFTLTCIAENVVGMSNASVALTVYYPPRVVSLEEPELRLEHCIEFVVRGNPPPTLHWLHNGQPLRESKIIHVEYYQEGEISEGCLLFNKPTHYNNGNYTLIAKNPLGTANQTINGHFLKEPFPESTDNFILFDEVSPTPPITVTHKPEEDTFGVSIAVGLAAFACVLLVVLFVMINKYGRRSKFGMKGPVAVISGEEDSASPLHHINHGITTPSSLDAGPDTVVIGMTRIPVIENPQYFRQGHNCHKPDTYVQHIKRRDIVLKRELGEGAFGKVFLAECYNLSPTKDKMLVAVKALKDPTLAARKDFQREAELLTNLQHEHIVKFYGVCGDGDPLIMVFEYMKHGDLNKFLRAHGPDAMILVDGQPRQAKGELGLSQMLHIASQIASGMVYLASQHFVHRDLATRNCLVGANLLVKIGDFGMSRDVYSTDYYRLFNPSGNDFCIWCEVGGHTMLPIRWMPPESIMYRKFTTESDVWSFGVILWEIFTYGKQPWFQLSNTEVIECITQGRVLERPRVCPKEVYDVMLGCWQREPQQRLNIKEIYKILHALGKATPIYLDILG
Text: as §1, §2, §3

BaF3-ETV6-NTRK2 = biological target: T4, BaF3-ETV6-NTRK2 (Homo sapiens, UniProt Q16620); test: as above; assay type: cell-based, mouse; details: 72 hours, read-out: cell viability IC50 ETV6-NTRK2
T4 construct: fused on or other part: P41212 (Transcription factor ETV6)
T4 sequence (Q16620 538-822 limits assumed): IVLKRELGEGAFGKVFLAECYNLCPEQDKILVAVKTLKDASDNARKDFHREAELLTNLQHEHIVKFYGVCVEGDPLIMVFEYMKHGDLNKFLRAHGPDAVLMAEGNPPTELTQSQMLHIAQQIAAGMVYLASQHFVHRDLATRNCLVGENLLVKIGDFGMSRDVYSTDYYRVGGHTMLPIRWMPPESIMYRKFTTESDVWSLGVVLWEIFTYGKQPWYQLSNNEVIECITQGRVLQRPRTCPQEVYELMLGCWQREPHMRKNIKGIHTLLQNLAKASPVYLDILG
Text: as §1, §2, §3

TRKC = biological target: T5, TRKC (Homo sapiens, UniProt Q16288); test: Z'-LYTE kinase activity detection, TRKC; assay type: biochemical
T5 construct: purchased American Life Technologies PV3617
T5 sequence (Q16288 32-839): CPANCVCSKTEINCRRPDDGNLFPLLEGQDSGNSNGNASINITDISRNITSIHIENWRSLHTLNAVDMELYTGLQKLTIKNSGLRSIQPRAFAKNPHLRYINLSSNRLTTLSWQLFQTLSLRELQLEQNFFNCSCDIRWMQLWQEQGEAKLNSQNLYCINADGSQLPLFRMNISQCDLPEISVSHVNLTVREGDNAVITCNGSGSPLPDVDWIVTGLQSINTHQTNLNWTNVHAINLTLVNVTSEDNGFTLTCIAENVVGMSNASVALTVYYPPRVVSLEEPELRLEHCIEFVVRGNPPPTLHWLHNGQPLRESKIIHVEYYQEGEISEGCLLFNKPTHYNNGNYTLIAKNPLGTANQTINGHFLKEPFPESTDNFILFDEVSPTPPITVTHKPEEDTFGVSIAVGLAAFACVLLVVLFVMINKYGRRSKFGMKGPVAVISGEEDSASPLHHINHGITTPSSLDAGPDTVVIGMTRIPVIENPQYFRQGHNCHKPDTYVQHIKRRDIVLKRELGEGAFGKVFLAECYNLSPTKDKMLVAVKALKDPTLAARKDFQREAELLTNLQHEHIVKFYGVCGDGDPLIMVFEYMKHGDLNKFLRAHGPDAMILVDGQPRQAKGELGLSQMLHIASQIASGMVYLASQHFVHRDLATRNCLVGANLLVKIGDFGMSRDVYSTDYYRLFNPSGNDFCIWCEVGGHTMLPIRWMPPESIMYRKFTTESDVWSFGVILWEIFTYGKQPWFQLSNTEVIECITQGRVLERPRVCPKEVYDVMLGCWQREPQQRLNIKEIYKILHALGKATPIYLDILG

TRKB = biological target: T6, TRKB (Homo sapiens, UniProt Q16620); test: Z'-LYTE kinase activity detection, TRKB; assay type: biochemical
T6 construct: purchased American Life Technologies PV3616
T6 sequence (Q16620 32-822): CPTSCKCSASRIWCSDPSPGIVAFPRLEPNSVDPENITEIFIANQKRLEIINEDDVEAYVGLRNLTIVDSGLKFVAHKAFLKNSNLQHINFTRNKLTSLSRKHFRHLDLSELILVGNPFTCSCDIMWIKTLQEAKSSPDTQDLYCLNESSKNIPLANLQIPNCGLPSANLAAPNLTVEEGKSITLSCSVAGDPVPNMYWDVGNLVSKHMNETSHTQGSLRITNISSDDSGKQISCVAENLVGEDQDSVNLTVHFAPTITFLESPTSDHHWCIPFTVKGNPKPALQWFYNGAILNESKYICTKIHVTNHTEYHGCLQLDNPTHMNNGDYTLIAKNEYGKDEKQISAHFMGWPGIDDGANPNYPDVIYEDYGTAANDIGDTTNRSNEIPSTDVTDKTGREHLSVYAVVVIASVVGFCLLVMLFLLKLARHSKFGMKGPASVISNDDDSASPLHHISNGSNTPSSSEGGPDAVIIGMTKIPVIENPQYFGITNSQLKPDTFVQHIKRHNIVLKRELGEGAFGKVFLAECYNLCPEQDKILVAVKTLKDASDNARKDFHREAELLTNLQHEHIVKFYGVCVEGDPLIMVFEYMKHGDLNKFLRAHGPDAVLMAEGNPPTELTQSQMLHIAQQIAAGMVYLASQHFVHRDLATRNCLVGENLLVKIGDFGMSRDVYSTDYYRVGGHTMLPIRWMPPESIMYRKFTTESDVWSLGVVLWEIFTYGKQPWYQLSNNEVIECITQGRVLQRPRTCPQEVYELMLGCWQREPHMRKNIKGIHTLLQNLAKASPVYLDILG

T1 sequence (P04629 33-796): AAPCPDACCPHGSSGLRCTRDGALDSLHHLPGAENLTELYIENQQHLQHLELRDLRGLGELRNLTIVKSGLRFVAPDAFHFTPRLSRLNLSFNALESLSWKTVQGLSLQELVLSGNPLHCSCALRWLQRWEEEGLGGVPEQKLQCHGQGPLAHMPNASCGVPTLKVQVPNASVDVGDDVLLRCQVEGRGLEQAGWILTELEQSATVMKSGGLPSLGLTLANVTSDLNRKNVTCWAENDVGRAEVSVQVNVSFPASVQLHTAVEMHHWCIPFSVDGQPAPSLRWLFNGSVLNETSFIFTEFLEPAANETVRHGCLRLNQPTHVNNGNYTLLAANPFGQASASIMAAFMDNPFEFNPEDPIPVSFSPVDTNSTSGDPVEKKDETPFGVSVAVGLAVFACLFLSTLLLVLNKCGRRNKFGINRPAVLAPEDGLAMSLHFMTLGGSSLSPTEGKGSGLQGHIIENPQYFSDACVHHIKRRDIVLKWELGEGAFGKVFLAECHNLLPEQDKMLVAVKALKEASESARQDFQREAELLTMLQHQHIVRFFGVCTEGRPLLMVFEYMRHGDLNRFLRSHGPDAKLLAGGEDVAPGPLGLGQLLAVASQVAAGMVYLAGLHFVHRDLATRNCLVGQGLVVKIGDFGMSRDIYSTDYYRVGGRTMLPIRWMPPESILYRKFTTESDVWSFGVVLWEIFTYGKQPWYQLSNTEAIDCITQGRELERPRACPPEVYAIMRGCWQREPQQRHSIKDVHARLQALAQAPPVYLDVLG

SMILES | IC50 (TRKA) | IC50 (BaF3-CD74-NTRK1) | IC50 (BaF3-ETV6-NTRK3) | IC50 (BaF3-ETV6-NTRK2) | IC50 (TRKC) | IC50 (TRKB)
Cc1c(C#Cc2cnc3ccc(N4CCN(C)CC4)nn23)cccc1C(=O)Nc1cc(Cl)cc(C(F)(F)F)c1 [XS3-51, N-(3-CHLORO-5-(TRIFLUOROMETHYL)PHENYL)-2-METHYL-3-((6-(4-METHYLPIPERAZIN-1-YL)IMIDAZO[1,2-B]PYRIDAZIN-3-YL)ETHYNYL)BENZAMIDE] | 10 to 100 nM | 100 to 1000 nM | 10 to 100 nM | 100 to 1000 nM | < 10 nM | 10 to 100 nM
Cc1c(C#Cc2cnc3ccc(N4CCC(C)(O)CC4)nn23)cccc1C(=O)Nc1cc(Cl)cc(C(F)(F)F)c1 [XS3-153, N-(3-CHLORO-5-(TRIFLUOROMETHYL)PHENYL)-3-(6-(4-HYDROXY-4-METHYLPIPERIDIN-1-YL)IMIDAZO[1,2-B]PYRIDAZIN-3-YL)ETHYNYL)-2-METHYLBENZAMIDE] | 10 to 100 nM | 10 to 100 nM | 10 to 100 nM | 10 to 100 nM | 10 to 100 nM | 10 to 100 nM
Cc1c(C#Cc2cnc3cccnn23)cccc1C(=O)Nc1cccc(C(F)(F)F)c1 [XS2-106] | 100 to 1000 nM | 100 to 1000 nM | – | 100 to 1000 nM | – | > 1000 nM
Cc1c(C#Cc2cnc3ncccn23)cccc1C(=O)Nc1cc(CN2CCN(C)CC2)cc(C(F)(F)F)c1 [XS2-161] | 100 to 1000 nM | > 1000 nM | > 1000 nM | > 1000 nM | 100 to 1000 nM | > 1000 nM
Cc1c(C#Cc2cnc3ccc(NCCCCO)nn23)cccc1C(=O)Nc1cc(Cl)cc(C(F)(F)F)c1 [XS3-139, N-(3-CHLORO-5-(TRIFLUOROMETHYL)PHENYL)-3-((6-((4-HYDROXYBUTYL)AMINO)IMIDAZO[1,2-B]PYRIDAZINE-3-YL)ETHYNYL)-2-METHYLBENZAMIDE] | 10 to 100 nM | 10 to 100 nM | 10 to 100 nM | 10 to 100 nM | 10 to 100 nM | 10 to 100 nM
COCCNc1ccc2ncc(C#Cc3cccc(C(=O)Nc4cc(Cl)cc(C(F)(F)F)c4)c3C)n2n1 [XS3-135, N-(3-CHLORO-5-(TRIFLUOROMETHYL)PHENYL)-3-((6-((2-METHOXYETHYL)AMINO)IMIDAZO[1,2-B] PYRIDAZIN-3-YL)ETHYNYL)-2-METHYLBENZAMIDE] | 10 to 100 nM | 100 to 1000 nM | 10 to 100 nM | 100 to 1000 nM | 10 to 100 nM | 10 to 100 nM
Cc1c(C#Cc2cnc3ccc(N4CC[C@H](O)C4)nn23)cccc1C(=O)Nc1cccc(C(F)(F)F)c1 [XS3-35, (S)-3-((6-(3-HYDROXYPYRROLIDIN-1-YL)IMIDAZO[1,2-B]PYRIDAZIN-3-YL)ETHYNYL)-2-METHYL-N-(3-(TRIFLUOROMETHYL)PHENYL)BENZAMIDE] | < 10 nM | 10 to 100 nM | 10 to 100 nM | 100 to 1000 nM | < 10 nM | 10 to 100 nM
Cc1c(C#Cc2cnc3ccc(N4CCOCC4)nn23)cccc1C(=O)Nc1cccc(C(F)(F)F)c1 [XS3-23, 2-METHYL-3-((6-MORPHOLINIMIDAZO[1,2-B]PYRIDAZIN-3-YL)ETHYNYL)-N-(3-(TRIFLUOROMETHYL)BENZENE BASE) BENZAMIDE] | 10 to 100 nM | 10 to 100 nM | 10 to 100 nM | 10 to 100 nM | 10 to 100 nM | 10 to 100 nM
Cc1c(C#Cc2cnc3ccc(N4CCC(N5CCOCC5)CC4)nn23)cccc1C(=O)Nc1cc(Cl)cc(C(F)(F)F)c1 [XS3-130, N-(3-CHLORO-5-(TRIFLUOROMETHYL)PHENYL)-2-METHYL-3-((6-(4-MORPHOLINPIPERIDIN-1-YL)IMIDAZO[1,2-B]PYRIDAZIN-3-YL)ETHYNYL)BENZAMIDE] | 10 to 100 nM | 10 to 100 nM | 10 to 100 nM | 10 to 100 nM | < 10 nM | 10 to 100 nM
Cc1c(C#Cc2cnc3ccc(N4CCOCC4)nn23)cccc1C(=O)Nc1cc(Cl)cc(C(F)(F)F)c1 [XS3-61, N-(3-CHLORO-5-(TRIFLUOROMETHYL)PHENYL)-2-METHYL-3-((6-MORPHOLINIMIDAZO[1,2-B]PYRIDAZINE-3-YL)ETHYNYL)BENZAMIDE] | 10 to 100 nM | 10 to 100 nM | 10 to 100 nM | – | 10 to 100 nM | 10 to 100 nM
Cc1cc(NC(=O)c2cccc(C#Cc3cnc4ccc(N5CCOCC5)nn34)c2C)cc(C(F)(F)F)c1 [XS4-81] | 10 to 100 nM | 10 to 100 nM | < 10 nM | 10 to 100 nM | 10 to 100 nM | –
CC(=O)N1CCN(c2ccc3ncc(C#Cc4cccc(C(=O)Nc5cc(Cl)cc(C(F)(F)F)c5)c4C)n3n2)CC1 [XS3-54, 3-((6-(4-ACETYLPIPERAZIN-1-YL)IMIDAZO[1,2-B]PYRIDAZIN-3-YL)ETHYNYL)-N-(3-CHLORO-5-(TRIFLUORO) METHYL)PHENYL)-2-METHYLBENZAMIDE] | < 10 nM | 10 to 100 nM | 10 to 100 nM | 10 to 100 nM | < 10 nM | 10 to 100 nM
Cc1c(C#Cc2cnc3cccnn23)cccc1C(=O)Nc1cc(F)cc(C(F)(F)F)c1 [XS2-109, N-(3-FLUORO-5-(TRIFLUOROMETHYL)PHENYL)-3-(IMIDAZO[1,2-B]PYRIDAZIN-3-YLETHYNYL)-2-METHYLBENZENE FORMAMIDE] | 100 to 1000 nM | – | – | – | 100 to 1000 nM | > 1000 nM
Cc1c(C#Cc2cnc3ccc(N4CCC(N(C)C)CC4)nn23)cccc1C(=O)Nc1cccc(C(F)(F)F)c1 [XS3-57, 3-((6-(4-(DIMETHYLAMINO)PIPERIDIN-1-YL)IMIDAZO[1,2-B]PYRIDAZIN-3-YL)ETHYNYL)-2-METHYL-N-(3-(TRIFLUOROMETHYL)PHENYL)BENZAMIDE] | < 10 nM | 10 to 100 nM | 10 to 100 nM | 100 to 1000 nM | < 10 nM | < 10 nM
Cc1c(C#Cc2cnc3ccc(N(C)CCN(C)C)nn23)cccc1C(=O)Nc1cc(Cl)cc(C(F)(F)F)c1 [XS3-134, N-(3-CHLORO-5-(TRIFLUOROMETHYL)PHENYL)-3-((6-((2-(DIMETHYLAMINO)ETHYL)(METHYL)AMINO)IMIDAZO[1,2-B]PYRIDAZIN-3-YL)ETHYNYL)-2-METHYLBENZAMIDE] | 10 to 100 nM | 100 to 1000 nM | 10 to 100 nM | 100 to 1000 nM | 10 to 100 nM | 10 to 100 nM
Cc1c(C#Cc2cnc3ccc(N4CC[C@H](O)C4)nn23)cccc1C(=O)Nc1cc(CN2CCN(C)CC2)cc(C(F)(F)F)c1 [XS3-36, (S)-3-((6-(3-HYDROXYPYRROLIDIN-1-YL)IMIDAZO[1,2-B]PYRIDAZIN-3-YL)ETHYNYL)-2-METHYL-N-(3-((4-METHYLPIPERAZIN-1-YL)METHYL)-5-(TRIFLUOROMETHYL)PHENYL)BENZAMIDE] | 10 to 100 nM | 10 to 100 nM | 10 to 100 nM | 10 to 100 nM | < 10 nM | 10 to 100 nM
Cc1c(C#Cc2cnc3cccnn23)cccc1C(=O)Nc1cc(CN2CCN(C)CC2)cc(C(F)(F)F)c1 [XS116] | 10 to 100 nM | 100 to 1000 nM | 100 to 1000 nM | 100 to 1000 nM | 10 to 100 nM | 10 to 100 nM
Cc1c(C#Cc2cnc3cccnn23)cccc1C(=O)Nc1cc(Cl)cc(C(F)(F)F)c1 [XS2-112, N-(3-CHLORO-5-(TRIFLUOROMETHYL)PHENYL)-3-(IMIDAZO[1,2-B]PYRIDAZIN-3-YLETHYNYL)-2-METHYLBENZENE FORMAMIDE] | 100 to 1000 nM | 100 to 1000 nM | 100 to 1000 nM | 100 to 1000 nM | 100 to 1000 nM | 100 to 1000 nM
Cc1c(C#Cc2cnc3ccc(N4CCC(N(C)C)CC4)nn23)cccc1C(=O)Nc1cc(Cl)cc(C(F)(F)F)c1 [XS3-56, N-(3-CHLORO-5-(TRIFLUOROMETHYL)PHENYL)-3-((6-(4-(DIMETHYLAMINO)PIPERIDIN-1-YL)IMIDAZO[1,2-B]PYRIDAZIN-3-YL)ETHYNYL)-2-METHYLBENZAMIDE] | 10 to 100 nM | 100 to 1000 nM | 10 to 100 nM | 100 to 1000 nM | 10 to 100 nM | 10 to 100 nM
COc1cc(NC(=O)c2cccc(C#Cc3cnc4ccc(N5CCOCC5)nn34)c2C)cc(C(F)(F)F)c1 [XS4-72] | 10 to 100 nM | 10 to 100 nM | < 10 nM | 10 to 100 nM | 10 to 100 nM | 10 to 100 nM
Cc1c(C#Cc2cnc3ccc(N4CCOCC4)nn23)cccc1C(=O)Nc1cc(F)cc(C(F)(F)F)c1 [XS4-80] | 10 to 100 nM | 10 to 100 nM | 10 to 100 nM | 10 to 100 nM | 10 to 100 nM | –

From US11834454B2, “Alkynylphenylbenzamide compounds and applications thereof” (SHENZHEN NEWDEL BIOTECH CO., LTD., priority 2021, dated 2023)
